In patent US20070082910A1, “Specific nad(p)h oxidase inhibitor” (Mitsubishi Pharma Corporation, priority 2003, published 2007):
Marks after values point to notes of the source that are not given here.

Columns and labels:
[1] = system: NAD(P)H oxidase in diabetic rat aorta; assay: Aorta NAD(P)H oxidase inhibitory effect, test compound added to aorta ring specimen in vitro; format: biochemical; details: for chemiluminescence (×10^5 RLU/wet weight of aorta): mean ± standard error
Procedure: This ring specimen was preincubated in Krebs-Hepes buffer containing the test compound (compound A, compound B or DPI (SIGMA)) at 37° C. for 10 min, and then transferred to Krebs-Hepes buffer containing 0.25 mM lucigenin. […] The total value of chemiluminescence was calculated from AUC of the curve drawn by plotting the chemiluminescence value (vertical axis) relative to the measurement time (horizontal axis). The obtained chemiluminescence value was divided by the wet weight of the vascular ring specimen and standardized to the superoxide anion production per aorta unit weight.

[2] = system: rabbit myocardial infarction model; assay: Rabbit ischemia-reperfusion myocardial infarction model; format: in vivo; details: 1 mg/kg 1 hr before ligation; normal group as 100%
Source text: Male NZW rabbits (Japan SLC) were fixed in the dorsal position and subjected to thoracotomy with pentobarbital anesthesia. A silk thread (No. 4) was applied to the proximal left coronary artery, a polyethylene tube (length 1 cm) was further applied and the left coronary artery was ligated using a thread. After 2 hr from the ligation, the thread on the polyethylene tube was cut to reperfusion. After 4 hr from the reperfusion, the proximal coronary artery was ligated using a silk thread (No. 4), and 3% Evans blue solution (1 mL/kg) was intravenously administered. After 5 min, an excess pentobarbital was administered and the heart and aorta were removed. The heart was cut into a 3 mm-wide annular shape, and the left ventricle area and ischemia region (Evans blue unstained region) were traced.
After incubation in 1% TTC solution for 30 min, an infarction focus (TTC unstained region) was traced. Compound A (1 mg/kg) was administered 1 hr before the ligation.
The ratios of the ischemic region and infarction focus to the left ventricle area were calculated. […]
This suspension was centrifuged at 3000 rpm for 10 min, and the supernatant (8 mL) was centrifuged at 15000 rpm for 15 min. The obtained supernatant was mixed with phosphate buffer containing o-dianisidine dihydrochloride, kept at 25° C. for 30 min, the absorbance (OD460) was measured, and the myeloperoxidase (MPO) activity was determined. […]

[3] = system: NAD(P)H oxidase in normal rat aorta; assay: Effect on normal rat NAD(P)H oxidase (superoxide anion production in aorta after administration); format: in vivo; details: 10 mg/kg for 3 days
Procedure: The test compound (10 mg/kg) was administered to normal male Wistar rats (Japan SLC) for 3 days, and the production amount of superoxide anion in the aorta was measured in the same manner as in Experimental Example 2.
The inhibitory rate (%) was calculated by the following formula: inhibitory rate (%)=100−(A/B)×100 wherein A is the standardized chemiluminescence value of the rats administered with the test compound, and B is the standardized chemiluminescence value of the rats without administration of the test compound (control group).

NAD(P)H oxidase = assay: IL-8 production inhibitory effect in HUVEC cultured with 44 mM glucose; format: cell-based, human; details: for inhibitory rate (%) of IL-8 production: 8 days
Procedure: NAD(P)HOxidase Inhibitory Effect (Method)
44 mM glucose was added to Human Umbilical Vein Endothelial Cells (Bio Whittaker, hereinafter to be indicated as “HUVEC”), and cells were cultured for 8 days. Then, a lysis buffer containing a surfactant, Triton-X Nonidet P-40, was added, and interleukin-8 (hereinafter to be indicated as “IL-8”) in the cell lysate, which had been produced by NAD(P)H oxidase was measured by an enzyme-linked […]. The test compound was added one day before glucose addition.
The inhibitory rate was calculated from the following formula: inhibitory rate (%)=100−[(A−C)/(B−C)]×100
wherein A is IL-8 production of a cell cultured in the presence of 44 mM glucose with addition of the test compound, B is IL-8 production of a cell cultured in the presence of 44 mM glucose without addition of the test compound, and C is IL-8 production of a cell cultured in the absence of 44 mM glucose and the test compound. The IC50 value was calculated from the dose-effect line drawn by the least squares method based on the obtained inhibitory rate.

[4] = system: NAD(P)H oxidase in diabetic rat aorta; assay: NAD(P)H oxidase activity (superoxide anion production, lucigenin chemiluminescence) in aorta of streptozotocin diabetic rats after oral administration; format: in vivo; details: for inhibitory rate (%), NAD(P)H oxidase in diabetic rat aorta: once a day for 3 days
Procedure: Streptozotocin (40 mg/kg) dissolved in 0.05 M citric acid buffer (pH 4.5) was administered into the tail vein of male Wistar rats (Japan SLC) to prepare diabetic rats. At 1 week to 8 weeks from the intravenous injection of streptozotocin, blood was drawn from the tail vein using a capillary treated with heparin, which was immediately cooled with ice and centrifuged at 3000 rpm, 15 min, 4° C. to give serum. The blood glucose level was measured by enzyme assay using a glucose measurement kit “GLU neo sinotest” (sinotest) and a microplate reader (SPECTRA MAX250, Molecular Devices).
The NAD(P)H oxidase activity was measured by the following method, which was modified by the method of the David. G. Harrison et al. (J. Clin. Invest. 91, 2546-2551, 1993), at 4 days from the start of the test, with superoxide anion production in aorta as an index.
To be specific, normal rat or diabetic rat free of the above-mentioned treatment was exsanguinated from the abdominal aorta, their thoracic aorta was removed. The removed thoracic aorta was immersed in Krebs-Hepes buffer and marginal tissues were removed to prepare an about 5 mm ring specimen. This ring specimen was preincubate in Krebs-Hepes buffer at 37° C. for 10 min and transferred to Krebs-Hepes buffer containing 0.25 mM lucigenin (SIGMA). 500 μM NADH (SIGMA) was added and chemiluminescence value (chemiluminescence: unit RLU: relative light units) was measured using a luminometer (MULTI-BIOLUMAT LB9505C, Warrack.Berthold) at 37° C. for 10 min. The total value of chemiluminescence was calculated from the area under the curve (hereinafter to be referred to as “AUC”) drawn by plotting the chemiluminescence value (vertical axis) relative to the measurement time (horizontal axis). The measured total value of chemiluminescence was divided by the wet weight of the vascular ring specimen and standardized to the superoxide anion production per aorta unit weight.
The inhibitory rate (%) was calculated from the following formula: inhibitory rate (%)=100−[(A−C)/(B−C)]×100
wherein A was the standardized value of chemiluminescence of diabetic rat administered with the test compound, B was the standardized value of chemiluminescence of diabetic rat without administration of the test compound, and C was the standardized value of chemiluminescence of normal rat without administration of the test compound.

[5] = 0.1 μM added to aorta ring in vitro
[6] = 1 μM added to aorta ring in vitro

C[C@@H](Nc1nnc(-c2ccccc2)c2ccccc12)C1CCCCC1.O=C(O)/C=C\C(=O)O [compound A]
inhibitory rate (%) [1, 5]: 2.2%
chemiluminescence (×10^5 RLU/wet weight of aorta) [1, 5]: 9.1 ± 1.7 ×10^5 RLU/wet weight of aorta
inhibitory rate (%) [1, 6]: 1.1%
chemiluminescence (×10^5 RLU/wet weight of aorta) [1, 6]: 9.2 ± 1.7 ×10^5 RLU/wet weight of aorta
NAD(P)H oxidase inhibitory effect on aorta ring in vitro ([1]; result in words): did not show an NAD(P)H oxidase inhibitory effect
MPO activity in myocyte [2]: 128%*
inhibitory rate (%), NAD(P)H oxidase in normal rat aorta [3]: 1.8%
effect on superoxide anion production in normal rat ([3]; result in words): did not affect the superoxide anion production
chemiluminescence (×10^5 RLU/wet weight of aorta) ([3]; normal rat aorta, mean ± standard error): 3.89 ± 3.0 ×10^5 RLU/wet weight of aorta
IC50 (NAD(P)H oxidase; from dose-effect line by least squares): 6.3 nM
inhibitory rate (%) of IL-8 production (NAD(P)H oxidase; test compound concentration 0.01 μM): 39.5%
inhibitory rate (%) of IL-8 production (NAD(P)H oxidase; test compound concentration 0.1 μM): 59.8%
inhibitory rate (%) of IL-8 production (NAD(P)H oxidase; test compound concentration 1 μM): 74%
inhibitory rate (%), NAD(P)H oxidase in diabetic rat aorta ([4]; 1 mg/kg oral): 76.9%
inhibitory rate (%), NAD(P)H oxidase in diabetic rat aorta ([4]; 10 mg/kg oral): 105.8%
inhibitory rate (%), NAD(P)H oxidase activity in diabetic rat aorta (Table 2) ([4]; 10 mg/kg orally once a day for 3 days): 105.8%
chemiluminescence (×10^5 RLU/wet weight of aorta) ([4]; diabetic rat aorta, 10 mg/kg orally once a day for 3 days, mean ± standard error): 3.8 ± 0.6 ×10^5 RLU/wet weight of aorta
